Results published in BindingDB's records for doi:10.1016/j.bmcl.2009.12.099 (Methylgene, 2010).

Assays:
[1] = Inhibition of c-MET in human A549 cells by wound healing assay
[2] = Inhibition of c-MET in human DU145 cells by scattering assay

Row | IC50 [1] | IC50 [2] | Structure (SMILES)
1 | 2 µM | 10 µM | COc1ccccc1NC(=O)CC(Nc1ccc(Oc2ccnc3cc(-c4cn(C)cn4)sc23)c(F)c1)C(F)(F)F (stereo unspecified) [4,4,4-trifluoro-3-(3-fluoro-4-(2-(1-methyl-1H-imidazol-4-yl)thieno[3,2-b]pyridin-7-yloxy)phenylamino)-N-(2-methoxyphenyl)butanamide]
2 | 2 µM | 2 µM | Cn1cnc(-c2cc3nccc(Oc4ccc(NC(CC(=O)Nc5ccc(F)cc5)C(F)(F)F)cc4)c3s2)c1 (stereo unspecified) [4,4,4-trifluoro-N-(4-fluorophenyl)-3-(4-(2-(1-methyl-1H-imidazol-4-yl)thieno[3,2-b]pyridin-7-yloxy)phenylamino)butanamide]
3 | 0.4 µM | 0.4 µM | Cn1cnc(-c2cc3nccc(Oc4ccc(NC(CC(=O)Nc5ccc(F)cc5)C(F)(F)F)cc4F)c3s2)c1 (stereo unspecified) [4,4,4-trifluoro-3-(3-fluoro-4-(2-(1-methyl-1H-imidazol-4-yl)thieno[3,2-b]pyridin-7-yloxy)phenylamino)-N-(4-fluorophenyl)butanamide]
